The text below walks through data of patent US10221139B2, “Inhibitors of histone demethylases” (Gilead Sciences, Inc., priority 2012, dated 2019).

The structures appear in SMILES notation. pIC50: −log10 of the molar value.

Common to all, as to type: biochemical
One assay concerns the target T1, GASC1 (KDM4C, JMJD2C) (Homo sapiens, UniProt Q9H3R0).
T1 construct: 1-349; host or cells: E. coli
T1 sequence (Q9H3R0 1-349): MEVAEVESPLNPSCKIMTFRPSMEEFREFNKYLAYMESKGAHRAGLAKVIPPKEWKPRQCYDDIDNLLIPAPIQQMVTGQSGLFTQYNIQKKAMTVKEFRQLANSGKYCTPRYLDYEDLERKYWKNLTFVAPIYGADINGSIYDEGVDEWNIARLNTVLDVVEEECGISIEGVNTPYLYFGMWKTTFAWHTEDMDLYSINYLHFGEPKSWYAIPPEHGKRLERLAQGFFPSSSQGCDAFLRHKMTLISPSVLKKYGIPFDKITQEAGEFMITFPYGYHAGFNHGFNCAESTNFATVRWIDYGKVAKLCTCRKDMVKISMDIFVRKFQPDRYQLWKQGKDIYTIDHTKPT
Description: Histone lysine demethylase AlphaLISA assay, GASC1. The following applies: substrate BK9M3. The gist of the method:
(§1)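 AlphaLISA read-out, IC50. Enzyme 10 min preinc → + cpd (3% DMSO soln) 10 min → + substrate, RT → acceptor beads 60 min dark RT → streptavidin donor beads, dark RT → read.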

The target in a further assay is T2, FBXL10 (KDM2B) (Homo sapiens, UniProt Q8NHM5).
T2 construct: 1-650; purchased BPS, Bioscience, US; host or cells: Bac (baculovirus)
T2 sequence (Q8NHM5 1-650): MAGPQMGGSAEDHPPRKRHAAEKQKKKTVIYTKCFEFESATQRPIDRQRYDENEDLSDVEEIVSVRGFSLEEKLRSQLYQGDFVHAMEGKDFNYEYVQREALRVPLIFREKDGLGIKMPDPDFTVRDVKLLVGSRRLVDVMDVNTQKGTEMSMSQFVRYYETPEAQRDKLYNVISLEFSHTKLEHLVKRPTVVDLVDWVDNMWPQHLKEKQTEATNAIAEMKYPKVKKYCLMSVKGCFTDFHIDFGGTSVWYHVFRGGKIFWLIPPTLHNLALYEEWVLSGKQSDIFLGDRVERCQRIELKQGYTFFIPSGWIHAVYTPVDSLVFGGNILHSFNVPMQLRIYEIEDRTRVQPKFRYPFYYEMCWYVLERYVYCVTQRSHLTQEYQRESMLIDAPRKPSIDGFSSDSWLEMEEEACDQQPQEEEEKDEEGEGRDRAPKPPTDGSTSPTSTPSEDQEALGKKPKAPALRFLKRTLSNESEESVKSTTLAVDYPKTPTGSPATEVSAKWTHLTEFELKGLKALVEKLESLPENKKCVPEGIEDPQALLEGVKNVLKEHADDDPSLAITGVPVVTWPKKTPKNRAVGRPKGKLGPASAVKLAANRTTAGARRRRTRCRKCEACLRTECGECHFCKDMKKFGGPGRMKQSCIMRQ
In words: Histone lysine demethylase AlphaLISA assay, FBXL10. The following applies: substrate BH3K36M2. On the procedure:
Example 2: Histone Lysine Demethylase AlphaLISA Assays for IC50 Value Determination
Assays are performed analogously to the protocol described by Perkin Elmer (Roy et al. Perkin Elmer Technical Note: AlphaLISA #12, April 2011).
Enzymes are dissolved in enzyme buffer and incubated for 10 min before 5 μL is added to 5 μL 3% DMSO solutions of compounds in enzyme buffer. Incubated for another 10 minutes, before 5 μL substrate solution is added and the reaction mixture is incubated at room temperature for the given period. 10 μL acceptor beads, suspended at given dilutions in Epigenetic Buffer (Perkin Elmer AL008) from stock, are added and the suspension is incubated 60 minutes in the dark at room temperature, before 10 μL suspension (at the given dilutions in Epigenetic Buffer) of streptavidin donor beads (Perkin Elmer 6760002) in Epigenetic Buffer is added. After incubation at room temperature in the dark the plates are read. Reaction conditions are seen in Table 2b.

The target of the next assay is T3, UTX (KDM6A) (Homo sapiens, UniProt O15550).
T3 construct: 919-1401; host or cells: E. coli
Description: Histone lysine demethylase AlphaLISA assay, UTX. The following applies: substrate BK27M3. Summed up:
as §1

For the next assay, the target named is T4, PLU1 (KDM5B) (Homo sapiens, UniProt Q9UGL1).
T4 construct: 1-809; host or cells: E. coli
T4 sequence (Q9UGL1 1-809): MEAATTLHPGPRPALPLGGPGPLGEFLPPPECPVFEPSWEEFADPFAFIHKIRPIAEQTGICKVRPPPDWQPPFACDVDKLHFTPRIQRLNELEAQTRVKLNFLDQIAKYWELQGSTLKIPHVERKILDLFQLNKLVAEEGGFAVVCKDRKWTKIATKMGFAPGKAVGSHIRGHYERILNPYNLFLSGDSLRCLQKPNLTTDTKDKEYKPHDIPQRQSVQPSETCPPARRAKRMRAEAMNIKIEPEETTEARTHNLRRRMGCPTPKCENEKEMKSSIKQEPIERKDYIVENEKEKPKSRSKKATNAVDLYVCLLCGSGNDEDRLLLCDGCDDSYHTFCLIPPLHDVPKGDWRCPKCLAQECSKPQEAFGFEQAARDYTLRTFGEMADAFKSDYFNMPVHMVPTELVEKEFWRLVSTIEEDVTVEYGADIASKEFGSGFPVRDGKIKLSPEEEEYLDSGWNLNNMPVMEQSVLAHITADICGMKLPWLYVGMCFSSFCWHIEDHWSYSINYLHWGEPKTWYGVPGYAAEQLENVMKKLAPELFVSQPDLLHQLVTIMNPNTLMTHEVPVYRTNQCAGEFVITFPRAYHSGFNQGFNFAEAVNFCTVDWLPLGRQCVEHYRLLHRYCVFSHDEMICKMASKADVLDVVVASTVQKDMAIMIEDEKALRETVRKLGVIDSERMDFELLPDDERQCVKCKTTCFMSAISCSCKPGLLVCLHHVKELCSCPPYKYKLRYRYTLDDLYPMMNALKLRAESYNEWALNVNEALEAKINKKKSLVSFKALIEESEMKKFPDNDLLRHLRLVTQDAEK
Description: Histone lysine demethylase AlphaLISA assay, PLU1. The following applies: substrate H3K4M3B. Summed up:
as §1
(In general: In Alpha technology, singlet oxygen from a donor bead excites a nearby acceptor bead.)

T3 sequence (O15550 919-1401): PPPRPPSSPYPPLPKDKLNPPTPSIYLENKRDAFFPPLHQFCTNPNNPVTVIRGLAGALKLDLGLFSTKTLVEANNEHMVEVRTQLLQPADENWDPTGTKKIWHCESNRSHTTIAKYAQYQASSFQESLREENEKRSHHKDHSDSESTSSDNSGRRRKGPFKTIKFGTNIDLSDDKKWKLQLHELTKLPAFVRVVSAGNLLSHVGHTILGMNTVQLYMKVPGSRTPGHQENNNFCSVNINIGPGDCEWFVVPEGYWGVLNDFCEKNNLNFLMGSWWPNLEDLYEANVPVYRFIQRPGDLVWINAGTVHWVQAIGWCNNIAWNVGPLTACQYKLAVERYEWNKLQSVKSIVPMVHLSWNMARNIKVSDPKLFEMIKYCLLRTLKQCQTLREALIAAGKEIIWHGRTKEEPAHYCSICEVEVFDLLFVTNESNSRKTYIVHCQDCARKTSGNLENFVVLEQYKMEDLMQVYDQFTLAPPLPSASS

As to `CCCCCCCCCCCCCCCC(=O)OCC(COC(=O)CCCCCCCCCCCCCCC)OC(=O)c1ccnc(CNCC(=O)N(CC)CCN(C)C)c1` [#68, 2-(2-{[({[2-(dimethylamino)ethyl](ethyl)carbamoyl}methyl)amino]methyl}pyridine-4-carbonyloxy)-3-(hexadecanoyloxy)propyl hexadecanoate], the pIC50 against GASC1 (KDM4C, JMJD2C) was 6.00 to 7.00; against FBXL10 (KDM2B) it was not above 6.00; at UTX (KDM6A) it was more than 7.00; against PLU1 (KDM5B), 6.00 to 7.00.

As to `CCN(CCN(C)C)C(=O)CNCc1cc(C(=O)OC)ccn1` [#70, methyl 2-{[({[2-(dimethylamino)ethyl](ethyl)carbamoyl}methyl)amino]methyl}pyridine-4-carboxylate], the pIC50 was more than 7.00 at GASC1 (KDM4C, JMJD2C); not above 6.00 on FBXL10 (KDM2B); more than 7.00 against UTX (KDM6A); more than 7.00 against PLU1 (KDM5B).

Turning to `CCN(CCN(C)C)C(=O)CNCc1cc(C(=O)N(C)S(C)(=O)=O)ccn1` [#71, 2-{[({[2-(dimethylamino)ethyl](ethyl)carbamoyl}methyl)amino]methyl}-N-methanesulfonyl-N-methylpyridine-4-carboxamide], the pIC50 against GASC1 (KDM4C, JMJD2C) is more than 7.00; against FBXL10 (KDM2B), 6.00 to 7.00; against UTX (KDM6A), not above 6.00; against PLU1 (KDM5B), more than 7.00.

As for `CCN(CCN(C)C)C(=O)CNCc1cc(C(=O)N2CCOC2=O)ccn1` [#72, N-[2-(dimethylamino)ethyl]-N-ethyl-2-({[4-(2-oxo-1,3-oxazolidine-3-carbonyl)pyridin-2-yl]methyl}amino)acetamide], the pIC50 on GASC1 (KDM4C, JMJD2C) is more than 7.00; on FBXL10 (KDM2B), not above 6.00; against PLU1 (KDM5B) it was more than 7.00.

As for `O=C(O)c1ccnc(CN2CCC2)c1` [#79, 2-(azetidin-1-ylmethyl)pyridine-4-carboxylic acid], the pIC50 was not above 6.00 on GASC1 (KDM4C, JMJD2C); not above 6.00 on FBXL10 (KDM2B); not above 6.00 on PLU1 (KDM5B).

On to `CCN(CCN(C)C)C(=O)CNCc1cc(C(=O)OCC(F)(F)F)ccn1` [#80, 2,2,2-trifluoroethyl 2-{[({[2-(dimethylamino)ethyl](ethyl)carbamoyl}methyl)amino]methyl}pyridine-4-carboxylate], for which the pIC50 is more than 7.00 against GASC1 (KDM4C, JMJD2C); not above 6.00 against FBXL10 (KDM2B); more than 7.00 at PLU1 (KDM5B).

As for `CCN(CC(=O)N1CCCCC1)Cc1cc(C(=O)O)ccn1` [#81, 2-({ethyl[2-oxo-2-(piperidin-1-yl)ethyl]amino}methyl)pyridine-4-carboxylic acid], the pIC50 against GASC1 (KDM4C, JMJD2C) is 6.00 to 7.00; on FBXL10 (KDM2B), 6.00 to 7.00; at PLU1 (KDM5B) it was 6.00 to 7.00.

Consider `CCCCN(CC(=O)N1CCCCC1)Cc1cc(C(=O)O)ccn1` [#82, 2-({butyl[2-oxo-2-(piperidin-1-yl)ethyl]amino}methyl)pyridine-4-carboxylic acid], for which the pIC50 against GASC1 (KDM4C, JMJD2C) is not above 6.00; against FBXL10 (KDM2B), 6.00 to 7.00; on PLU1 (KDM5B) it was not above 6.00.

`O=C(O)c1ccnc(CN(CC(=O)N2CCCCC2)Cc2ccccc2)c1` [#83, 2-({benzyl[2-oxo-2-(piperidin-1-yl)ethyl]amino}methyl)pyridine-4-carboxylic acid]: the pIC50 at GASC1 (KDM4C, JMJD2C) is not above 6.00; at FBXL10 (KDM2B), 6.00 to 7.00; against PLU1 (KDM5B), not above 6.00.

On to `CC(C)CN(CC(=O)N1CCCCC1)Cc1cc(C(=O)O)ccn1` [#86, 2-{[(2-methylpropyl)[2-oxo-2-(piperidin-1-yl)ethyl]amino]methyl}pyridine-4-carboxylic acid], for which the pIC50 on GASC1 (KDM4C, JMJD2C) was not above 6.00; against FBXL10 (KDM2B), 6.00 to 7.00; against UTX (KDM6A), more than 7.00; on PLU1 (KDM5B), not above 6.00.

Consider `CCCN(CC(=O)N1CCCCC1)Cc1cc(C(=O)O)ccn1` [#87, 2-({[2-oxo-2-(piperidin-1-yl)ethyl](propyl)amino}methyl)pyridine-4-carboxylic acid], for which the pIC50 was not above 6.00 at GASC1 (KDM4C, JMJD2C); 6.00 to 7.00 at FBXL10 (KDM2B); more than 7.00 at UTX (KDM6A); 6.00 to 7.00 at PLU1 (KDM5B).

Take `CC(C)N(CC(=O)N1CCCCC1)Cc1cc(C(=O)O)ccn1` [#88, 2-({[2-oxo-2-(piperidin-1-yl)ethyl](propan-2-yl)amino}methyl)pyridine-4-carboxylic acid]: the pIC50 on GASC1 (KDM4C, JMJD2C) was not above 6.00; against FBXL10 (KDM2B), 6.00 to 7.00; at UTX (KDM6A), more than 7.00; against PLU1 (KDM5B), not above 6.00.

In the case of `CCN(CCN(C)C)C(=O)CNCc1cc(C(=O)OCCF)ccn1` [#90, 2-fluoroethyl 2-{[({[2-(dimethylamino)ethyl](ethyl)carbamoyl}methyl)amino]methyl}pyridine-4-carboxylate], the pIC50 is 6.00 to 7.00 at GASC1 (KDM4C, JMJD2C); not above 6.00 on FBXL10 (KDM2B); more than 7.00 on UTX (KDM6A); more than 7.00 against PLU1 (KDM5B).

`CCN(CCN(C)C)C(=O)CNCc1cc(C(=O)OCC(F)F)ccn1` [#91, 2,2-difluoroethyl 2-{[({[2-(dimethylamino)ethyl](ethyl)carbamoyl}methyl)amino]methyl}pyridine-4-carboxylate]: the pIC50 is more than 7.00 on GASC1 (KDM4C, JMJD2C); not above 6.00 at FBXL10 (KDM2B); more than 7.00 against UTX (KDM6A); more than 7.00 on PLU1 (KDM5B).

For the compound `CC(C)C[C@H](NCc1cc(C(=O)O)ccn1)C(=O)NC(C)(C)C` [#92, 2-({[(1S)-1-(tert-butylcarbamoyl)-3-methylbutyl]amino}methyl)pyridine-4-carboxylic acid], the pIC50 was not above 6.00 on GASC1 (KDM4C, JMJD2C); 6.00 to 7.00 at FBXL10 (KDM2B); 6.00 to 7.00 at UTX (KDM6A); not above 6.00 at PLU1 (KDM5B).

Broadly, the pIC50 is the negative decadic logarithm of the IC50, by convention in mol/L.
